In US11840527B2, “Non-fused thiophene derivatives and their uses” (ENYO PHARMA, priority 2018, dated 2023):

Test system: LXFL 1121
Experiment: Cytotoxicity, propidium iodide-based monolayer assay
Conditions: 96 h; LXFL 1121, lung large cell carcinoma; four days of treatment; T/C=50%; read-out: Absolute IC50
Method: The cytotoxicity was tested for compounds of the invention on five different cell-lines, namely LXFL 1121, MAXF 401, MMXF L-636, PRXF PC-3M and UXF 1138 which are respectively lung large cell carcinoma, breast adeno carcinoma, multiple myeloma, prostate adeno carcinoma and uterine sarcoma.
Therefore, the compounds have a cytotoxicity against tumor cells and can be used for treating cancer. Materials and Methods Compound Handling A working stock solution of the test compounds was prepared in DMSO at a concentration of 33 mM or 8.25 mM, and small aliquots were stored at −20° C. On each day of an experiment, a frozen aliquot of the working stock solution was thawed and stored at room temperature prior to and during treatment. All liquid handling steps were performed using the Tecan Freedom EVO 200 platform. First, serial 2-fold dilutions of the 33 mM DMSO working stock solution were done in DMSO. […] Briefly, cells were harvested from exponential phase cultures, counted and plated in 96 well flat-bottom microtiter plates at a cell density of 4,000 to 40,000 cells/well dependent on the cell line's growth rate. […] After an incubation period of 1-2 hours at room temperature, fluorescence (FU) was measured using the Enspire Multimode Plate Reader (excitation λ=530 nm, emission λ=620 nm) to quantify the amount of attached viable cells. […]

Question: With O=C(Nc1scc(-c2ccc(Cl)c(F)c2)c1C(=O)O)c1ccccc1 [Compound #2, 2-Benzamido-4-(4-chloro-3-fluoro-phenyl)thiophene-3-carboxylic acid] as the molecule, how does the IC50 read?
Answer: 10.7 µM
